Assay: Mannequin head curl retention expert evaluation (air dried hair)
Conditions: through 20 washes
Text: Mannequin Head Odor and Curl Expert Evaluation
Control perm: Omniperm™ with ammonium thioglycolate, available from Zotos Professional®, including both the reducing and oxidizing steps.
Curl Retention Assessments:
Treatment and expert sensory performed by licensed cosmetologist with 20+ years expertise in perms. All evaluations shown in graphs were done with hair in dry state, after air drying. Photos are available for most time points as well.

C[n+]1cccc(NCCS)c1.[I-] [3-((2-mercaptoethyl)amino)-1-methylpyridin-1-ium iodide]
Curl retention compared with benchmark control perm: equal curl retention

Source: patent US12398104B2, “Odorless thiols for permanent waving, straightening and depilatory applications” (The Procter & Gamble Company, priority 2017, dated 2025)
